According to patent US20250176599A1, “FLAVOR COMPOSITION AND FOOD AND BEVERAGE” (TAKASAGO INTERNATIONAL CORPORATION, priority 2021, published 2025):

Tests used:
[1] = Sensory evaluation of degradation component-added mayonnaise II (1,5-octadien-3-one 5 ppm)
Experimental: To commercially available mayonnaise (“Kewpie Mayonnaise” manufactured by Kewpie Corporation), each degradation component was added to prepare degradation component-added mayonnaises I and II at the concentrations listed in Table 20. To these degradation component-added mayonnaises, oleic acid was added at the concentrations listed in Table 21 to confirm the intensity of the off-flavor (masking effect) and the intensity of the masking components (impact on the flavor of the mayonnaise itself) for each sample.
Six experienced panelists were selected to conduct a sensory evaluation similar to that of Example 1.
To the degradation component-added mayonnaise II listed in Table 20, menthyl 3-hydroxybutyrate was added at the concentrations listed in Table 22 to confirm the intensity of the off-flavor (masking effect) and the intensity of the masking component (impact on the flavor of the mayonnaise itself) for each sample.

[2] = Overall conclusion of the sensory evaluation across shortenings I and II
Experimental: (§1) To commercially available shortening (“Pampas LTR30” manufactured by Fuji Oil Co., Ltd.), each degradation component was added to prepare degradation component-added shortenings I and II at the concentrations listed in Table 17. To these degradation component-added shortenings, β-ionone was added at the concentrations listed in Table 18 to confirm the intensity of the off-flavor (masking effect) and the intensity of the masking components (impact on the flavor of the shortening itself) for each sample.
(§2) Eight experienced panelists were selected to conduct a sensory evaluation similar to that of Example 1.
(§3) The same method as in Example 16 was used to confirm the intensity of the off-flavor (masking effect) derived from unsaturated fatty acids by β-damascenone and the intensity of the masking components (impact on the flavor of the shortening itself).

[3] = Sensory evaluation of degradation component-added shortening II (1,5-octadien-3-one 1 ppb); details: average panel score
Experimental: as §1, §2, §3

[4] = Sensory evaluation of degradation component-added shortening I ((E)-2-octenal 500 ppb); details: average panel score
Experimental: as §1
Eight experienced panelists were selected to conduct a sensory evaluation similar to that of Example 1. […]

| Compound | concentration that masks the off-flavor and does not affect the flavor of the shortening itself, upper limit [2] [ppb] | Masking Component Intensity ([3]; 1 ppb added) | Off-Flavor Intensity ([3]; 1 ppb added) | Masking Component Intensity ([3]; 1 ppt added) | Off-Flavor Intensity ([3]; 1 ppt added) | Masking Component Intensity ([3]; 10 ppb added) | Off-Flavor Intensity ([3]; 10 ppb added) | Masking Component Intensity ([3]; 10 ppt added) | Off-Flavor Intensity ([3]; 10 ppt added) | Masking Component Intensity ([3]; 100 ppt added) | Off-Flavor Intensity ([3]; 100 ppt added) | Masking Component Intensity ([4]; 1 ppb added) | Off-Flavor Intensity ([4]; 1 ppb added) | Masking Component Intensity ([4]; 1 ppt added) | Off-Flavor Intensity ([4]; 1 ppt added) | Masking Component Intensity ([4]; 10 ppb added) | Off-Flavor Intensity ([4]; 10 ppb added) | Masking Component Intensity ([4]; 10 ppt added) | Off-Flavor Intensity ([4]; 10 ppt added) | Masking Component Intensity ([4]; 100 ppt added) | further results |
| --- | --- | --- | --- | --- | --- | --- | --- | --- | --- | --- | --- | --- | --- | --- | --- | --- | --- | --- | --- | --- | --- |
| CC(O)CC(=O)OC1CC(C)CCC1C(C)C (stereo not shown) [menthyl 3-hydroxybutyrate] |  |  |  |  |  |  |  |  |  |  |  |  |  |  |  |  |  |  |  |  | concentration that masks the off-flavor and does not affect the flavor of the mayonnaise itself, lower limit [1]: ≥ 100 ppt; concentration that masks the off-flavor and does not affect the flavor of the mayonnaise itself, upper limit [1]: ≤ 100 ppm; Masking Component Intensity ([1]; 1 ppb added): 0.2; Off-Flavor Intensity ([1]; 1 ppb added): 3.0; Masking Component Intensity ([1]; 1 ppm added): 0.6; Off-Flavor Intensity ([1]; 1 ppm added): 0.8; Masking Component Intensity ([1]; 10 ppb added): 0.2; Off-Flavor Intensity ([1]; 10 ppb added): 2.2; Masking Component Intensity ([1]; 10 ppm added): 1.0; Off-Flavor Intensity ([1]; 10 ppm added): 0.6; Masking Component Intensity ([1]; 50 ppm added): 1.6; Off-Flavor Intensity ([1]; 50 ppm added): 0.6; Masking Component Intensity ([1]; 100 ppb added): 0.4; Off-Flavor Intensity ([1]; 100 ppb added): 1.6; Masking Component Intensity ([1]; 100 ppm added): 2.0; Off-Flavor Intensity ([1]; 100 ppm added): 0.6; Masking Component Intensity ([1]; 100 ppt added): 0.2; Off-Flavor Intensity ([1]; 100 ppt added): 3.0 |
| C/C=C/C(=O)C1=C(C)C=CCC1(C)C [β-Damascenone, β-damascenone] | ≤ 10 | 2.5 | 2.3 | 0.9 | 3.4 | 2.6 | 2.0 | 1.3 | 3.0 | 1.9 | 2.5 | 2.9 | 1.8 | 1.1 | 3.1 | 3.1 | 1.1 | 1.5 | 2.6 | 2.1 | Off-Flavor Intensity ([4]; 100 ppt added): 2.3 |
| CC(=O)/C=C/C1=C(C)CCCC1(C)C [β-Ionone, β-ionone] | ≤ 10 | 1.9 | 2.4 | 0.4 | 3.6 | 2.3 | 2.0 | 0.9 | 3.4 | 1.5 | 2.8 | 2.1 | 1.5 | 0.6 | 3.1 | 2.6 | 1.1 | 1.1 | 2.6 | 1.8 | concentration that masks the off-flavor and does not affect the flavor of the shortening itself, lower limit [2]: ≥ 10 ppt; Off-Flavor Intensity ([4]; 100 ppt added): 2.4 |
